Data as given in patent US20240158446A1, “CYCLIC COMPOUND HAVING SELECTIVE INHIBITORY ACTION ON KRAS OVER HRAS AND NRAS” (CHUGAI SEIYAKU KABUSHIKI KAISHA, priority 2021, published 2024).

Tests used:
[1] = molecular target: GDP-bound HRAS wild-type protein (Homo sapiens, UniProt P01112); assay: Binding to HRAS by surface plasmon resonance (SPR), Single Cycle Kinetics; details: SPR KD ratio HRAS/KRAS, class symbols
[2] = molecular target: GDP-bound NRAS wild-type protein (Homo sapiens, UniProt P01111); assay: Binding to NRAS by surface plasmon resonance (SPR), Single Cycle Kinetics; details: SPR KD ratio NRAS/KRAS, class symbols
GDP-bound NRAS wild-type protein, sequence (P01111 whole entry): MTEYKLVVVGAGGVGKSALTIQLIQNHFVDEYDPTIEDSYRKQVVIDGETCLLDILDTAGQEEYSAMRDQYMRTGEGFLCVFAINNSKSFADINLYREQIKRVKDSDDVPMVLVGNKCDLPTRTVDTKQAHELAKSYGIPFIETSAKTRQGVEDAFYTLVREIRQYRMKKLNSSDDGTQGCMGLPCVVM

GDP-bound HRAS wild-type protein, sequence (P01112 whole entry): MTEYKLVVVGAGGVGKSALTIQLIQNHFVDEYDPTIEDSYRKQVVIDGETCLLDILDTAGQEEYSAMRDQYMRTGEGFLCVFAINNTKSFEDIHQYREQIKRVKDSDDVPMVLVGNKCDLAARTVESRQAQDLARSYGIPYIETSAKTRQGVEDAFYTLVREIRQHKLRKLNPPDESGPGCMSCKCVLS

| Compound | HRAS/KRAS (ratio of KD value with respect to GDP-bound HRAS wild-type protein to KD value with respect to KRAS) [1] | NRAS/KRAS (ratio of KD value with respect to GDP-bound NRAS wild-type protein to KD value with respect to KRAS) [2] |
| --- | --- | --- |
| CCC[C@H]1C(=O)N[C@@H]([C@@H](C)CC)C(=O)N(C)CC(=O)N(C)[C@H]2C/C=C\CCN(C2=O)[C@@H](Cc2ccc(C(F)(F)F)cc2)C(=O)N(C)CC(=O)N[C@@H](CCc2cc(F)c(CC)c(OC)c2)C(=O)N2C[C@H](OCC)C[C@H]2C(=O)NC2(CC(C)(C)C2)C(=O)N(C)[C@@H](C2CCCC2)C(=O)N(C)[C@H](C(=O)N(C)C)CC(=O)N1C [PP2862] | B (a compound having 3 or more and less than 10 is denoted as B) | A (a compound having 10 or more and less than 20 is denoted as A) |
| CCC[C@H]1C(=O)N[C@@H]([C@@H](C)CC)C(=O)N(C)CC(=O)N(C)[C@H]2C/C=C\CCN(C2=O)[C@@H](Cc2ccc(C(F)(F)F)cc2)C(=O)N(C)CC(=O)N[C@@H](CCc2cc(C)c(C3CC3)c(C)c2)C(=O)N2C[C@H](OCC)C[C@H]2C(=O)NC2(CC(C)(C)C2)C(=O)N(C)[C@@H](C2CCCC2)C(=O)N(C)[C@H](C(=O)N(C)C)CC(=O)N1C [PP2863] | A (a compound having 10 or more and less than 20 is denoted as A) | A (a compound having 10 or more and less than 20 is denoted as A) |
| CCC[C@H]1C(=O)N[C@@H]([C@@H](C)CC)C(=O)N(C)CC(=O)N(C)[C@H]2C/C=C\CCN(C2=O)[C@@H](Cc2ccc(C(F)(F)F)cc2)C(=O)N(C)CC(=O)N[C@@H](CCc2cc(F)c(Cl)c(OC)c2)C(=O)N2C[C@H](OCC)C[C@H]2C(=O)NC2(CC(C)(C)C2)C(=O)N(C)[C@@H](C2CCCC2)C(=O)N(C)[C@H](C(=O)N(C)C)CC(=O)N1C [PP2864] | A (a compound having 10 or more and less than 20 is denoted as A) | A (a compound having 10 or more and less than 20 is denoted as A) |
| CCC[C@H]1C(=O)N[C@@H]([C@@H](C)CC)C(=O)N(C)CC(=O)N(C)[C@H]2C/C=C\CCN(C2=O)[C@@H](Cc2ccc(C(F)(F)F)cc2)C(=O)N(C)CC(=O)N[C@@H](CCc2cc(Cl)c(C(F)F)c(Cl)c2)C(=O)N2C[C@H](OCC)C[C@H]2C(=O)NC2(CC(C)(C)C2)C(=O)N(C)[C@@H](C2CCCC2)C(=O)N(C)[C@H](C(=O)N(C)C)CC(=O)N1C [PP2865] | A (a compound having 10 or more and less than 20 is denoted as A) | A (a compound having 10 or more and less than 20 is denoted as A) |
| CCC[C@H]1C(=O)N[C@@H]([C@@H](C)CC)C(=O)N(C)CC(=O)N(C)[C@H]2C/C=C\CCN(C2=O)[C@@H](Cc2ccc(C(F)(F)F)cc2)C(=O)N(C)CC(=O)N[C@@H](CCc2cc(C)c(C(F)F)c(Cl)c2)C(=O)N2C[C@H](OCC)C[C@H]2C(=O)NC2(CC(C)(C)C2)C(=O)N(C)[C@@H](C2CCCC2)C(=O)N(C)[C@H](C(=O)N(C)C)CC(=O)N1C [PP2866] | A (a compound having 10 or more and less than 20 is denoted as A) | A (a compound having 10 or more and less than 20 is denoted as A) |
| CCC[C@H]1C(=O)N[C@@H]([C@@H](C)CC)C(=O)N(C)CC(=O)N(C)[C@H]2C/C=C\CCN(C2=O)[C@@H](Cc2ccc(C(F)(F)F)cc2)C(=O)N(C)CC(=O)N[C@@H](CCc2cc(F)c(C(F)F)c(OC)c2)C(=O)N2C[C@H](OCC)C[C@H]2C(=O)NC2(CC(C)(C)C2)C(=O)N(C)[C@@H](C2CCCC2)C(=O)N(C)[C@H](C(=O)N(C)C)CC(=O)N1C [PP2867] | A (a compound having 10 or more and less than 20 is denoted as A) | A (a compound having 10 or more and less than 20 is denoted as A) |
| CCC[C@H]1C(=O)N[C@@H]([C@@H](C)CC)C(=O)N(C)CC(=O)N(C)[C@H]2C/C=C\CCN(C2=O)[C@@H](Cc2ccc(C(F)(F)F)cc2)C(=O)N(C)CC(=O)N[C@@H](CCc2ccc(C(F)F)c(OC)c2)C(=O)N2C[C@H](OCC)C[C@H]2C(=O)NC2(CC(C)(C)C2)C(=O)N(C)[C@@H](C2CCCC2)C(=O)N(C)[C@H](C(=O)N(C)C)CC(=O)N1C [PP2868] | A (a compound having 10 or more and less than 20 is denoted as A) | A (a compound having 10 or more and less than 20 is denoted as A) |
| CCC[C@H]1C(=O)N[C@@H]([C@@H](C)CC)C(=O)N(C)CC(=O)N(C)[C@H]2C/C=C\CCN(C2=O)[C@@H](Cc2ccc(C(F)(F)F)cc2)C(=O)N(C)CC(=O)N[C@@H](CCc2ccc(CC)c(OC)c2)C(=O)N2C[C@H](OCC)C[C@H]2C(=O)NC2(CC(C)(C)C2)C(=O)N(C)[C@@H](C2CCCC2)C(=O)N(C)[C@H](C(=O)N(C)C)CC(=O)N1C [PP2869] | A (a compound having 10 or more and less than 20 is denoted as A) | A (a compound having 10 or more and less than 20 is denoted as A) |
| CCC[C@H]1C(=O)N[C@@H]([C@@H](C)CC)C(=O)N(C2CC2)CC(=O)N(C)[C@H]2C/C=C\CCN(C2=O)[C@@H](Cc2ccc(C)cc2)C(=O)N(C)CC(=O)N[C@@H](CCc2ccc(C(F)(F)F)c(CC)c2)C(=O)N2C[C@H](OCC)C[C@H]2C(=O)NC2(CC(C)(C)C2)C(=O)N(C)[C@@H](C2CCCC2)C(=O)N(C)[C@H](C(=O)N(C)C)CC(=O)N1C [PP2870] | A (a compound having 10 or more and less than 20 is denoted as A) | A (a compound having 10 or more and less than 20 is denoted as A) |
| CCC[C@H]1C(=O)N[C@@H]([C@@H](C)CC)C(=O)N(C2CC2)CC(=O)N(C)[C@H]2C/C=C\CCN(C2=O)[C@@H](Cc2ccc(C)cc2)C(=O)N(C)CC(=O)N[C@@H](CCc2cc(F)c(Cl)c(OC)c2)C(=O)N2C[C@H](OCC)C[C@H]2C(=O)NC2(CC(C)(C)C2)C(=O)N(C)[C@@H](C2CCCC2)C(=O)N(C)[C@H](C(=O)N(C)C)CC(=O)N1C [PP2871] | A (a compound having 10 or more and less than 20 is denoted as A) | A (a compound having 10 or more and less than 20 is denoted as A) |
| CCC[C@H]1C(=O)N[C@@H]([C@@H](C)CC)C(=O)N(C2CC2)CC(=O)N(C)[C@H]2C/C=C\CCN(C2=O)[C@@H](Cc2ccc(C)cc2)C(=O)N(C)CC(=O)N[C@@H](CCc2cc(F)c(CC)c(OC)c2)C(=O)N2C[C@H](OCC)C[C@H]2C(=O)NC2(CC(C)(C)C2)C(=O)N(C)[C@@H](C2CCCC2)C(=O)N(C)[C@H](C(=O)N(C)C)CC(=O)N1C [PP2872] | A (a compound having 10 or more and less than 20 is denoted as A) | A (a compound having 10 or more and less than 20 is denoted as A) |
| CCC[C@H]1C(=O)N[C@@H]([C@@H](C)CC)C(=O)N(C2CC2)CC(=O)N(C)[C@H]2C/C=C\CCN(C2=O)[C@@H](Cc2ccc(C)cc2)C(=O)N(C)CC(=O)N[C@@H](CCc2cc(C)c(C(F)F)c(C)c2)C(=O)N2C[C@H](OCC)C[C@H]2C(=O)NC2(CC(C)(C)C2)C(=O)N(C)[C@@H](C2CCCC2)C(=O)N(C)[C@H](C(=O)N(C)C)CC(=O)N1C [PP2873] | A (a compound having 10 or more and less than 20 is denoted as A) | A (a compound having 10 or more and less than 20 is denoted as A) |
| CCC[C@H]1C(=O)N[C@@H]([C@@H](C)CC)C(=O)N(C2CC2)CC(=O)N(C)[C@H]2C/C=C\CCN(C2=O)[C@@H](Cc2ccc(C)cc2)C(=O)N(C)CC(=O)N[C@@H](CCc2cc(C)c(C(F)F)c(F)c2)C(=O)N2C[C@H](OCC)C[C@H]2C(=O)NC2(CC(C)(C)C2)C(=O)N(C)[C@@H](C2CCCC2)C(=O)N(C)[C@H](C(=O)N(C)C)CC(=O)N1C [PP2874] | A (a compound having 10 or more and less than 20 is denoted as A) | A (a compound having 10 or more and less than 20 is denoted as A) |
| CCC[C@H]1C(=O)N[C@@H]([C@@H](C)CC)C(=O)N(C2CC2)CC(=O)N(C)[C@H]2C/C=C\CCN(C2=O)[C@@H](Cc2ccc(C)cc2)C(=O)N(C)CC(=O)N[C@@H](CCc2cc(C)c(C(F)F)c(Cl)c2)C(=O)N2C[C@H](OCC)C[C@H]2C(=O)NC2(CC(C)(C)C2)C(=O)N(C)[C@@H](C2CCCC2)C(=O)N(C)[C@H](C(=O)N(C)C)CC(=O)N1C [PP2875] | A (a compound having 10 or more and less than 20 is denoted as A) | A (a compound having 10 or more and less than 20 is denoted as A) |
| CCC[C@H]1C(=O)N[C@@H]([C@@H](C)CC)C(=O)N(C2CC2)CC(=O)N(C)[C@H]2C/C=C\CCN(C2=O)[C@@H](Cc2ccc(C)cc2)C(=O)N(C)CC(=O)N[C@@H](CCc2cc(Cl)c(C(F)F)c(Cl)c2)C(=O)N2C[C@H](OCC)C[C@H]2C(=O)NC2(CC(C)(C)C2)C(=O)N(C)[C@@H](C2CCCC2)C(=O)N(C)[C@H](C(=O)N(C)C)CC(=O)N1C [PP2877] | A (a compound having 10 or more and less than 20 is denoted as A) | A (a compound having 10 or more and less than 20 is denoted as A) |
